Laboratory results published in paper PMC10771296, “Plectasin: from evolution to truncation, expression, and better druggability” (Frontiers in Microbiology, 2023).
≈ marks a conversion by molar mass, not a printed value. Entries after “also recorded” stand apart in the source; their conditions may differ. Where a SMILES comes first, the peptide text is derived from it. Bridges are numbered along the chain shown (N, C = ends).

Tests used:
mouse erythrocytes = assay: Hemolysis; format: cell-based; conditions: 8% mouse erythrocyte suspension, 37°C
Experimental: The hemolytic properties of the peptides were evaluated by measuring the amount of hemoglobin released from fresh mouse erythrocytes ([Yang et al., 2019]). Blood was collected from mice in sodium heparin anticoagulation tubes, and the erythrocytes were washed three or more times with 0.9% saline to obtain an 8% erythrocyte suspension. The erythrocyte suspension was mixed with an equal volume of Ple-AB at concentrations of 0.5–256 μg/mL, incubated at 37°C, and the absorbance values were measured at 540 nm. PBS and 0.1% Triton X-100 were used as the blank (A0) and positive controls (A100), respectively. Hemolysis (%) = [(A – A0)/(A100 – A0)] × 100, and three replicates were conducted for each case.

S. aureus ATCC43300 [1] = assay: Stability in simulated (artificial) gastric fluid read out as MIC; format: in vitro ADME, Staphylococcus aureus
Experimental: The stability of Ple-AB was assessed based on its antibacterial activity against S. aureus ATCC43300. Temperature stability was determined by incubation at 20, 40, 60, 80, and 100°C for 1 h ([Li et al., 2020]). The pH stability was determined by incubation in buffers with a pH of 2, 4, 6, 8, and 10 for 4 h ([Yang et al., 2017]). The peptides were incubated with different concentrations of metal ions, serum, artificial gastric fluid, and simulated intestinal fluid to assess their stability in the blood and intestines ([Lyu et al., 2019]). All the treatments were performed in triplicates.

S. aureus ATCC 43300 = assay: Inhibition zone screening of expression supernatants; format: cell-based, Staphylococcus aureus; conditions: induced supernatant of P. pastoris X-33 transformants, 48-well plates, 120 h
Source text: The recombinant expression vector was constructed by ligating the designed and optimized sequence to the pPICZαA inducible expression vector, relying on the preference of the codon of P. pastoris. The linearized plasmid was transferred into P. pastoris X-33 for expression and the resulting product was verified for activity using an inhibition zone assay (against S. aureus ATCC 43300) before the active peptide was expressed at a high density in a 5-L fermenter ([Mao et al., 2015]). The supernatant was purified using the AKTA Express system. The fermentation supernatant was collected by centrifugation (5,000 rmp, 30 min), filtered with micro-filtration membranes ([…]). According to the isoelectric point of the target product, the corresponding A (50 mM sodium phosphate buffer, pH 6.7) and B (50 mM sodium phosphate buffer, 600 mM NaCl, pH 6.7) buffers were configured and purified by HiPrep SP FF cation exchange column (GE Healthcare). The protein samples were eluted by increasing the NaCl concentration in a stepwise manner, and the corresponding elution peak was collected. The purified product was verified using tricine-sodium dodecyl sulfate-polyacrylamide gel electrophoresis (Tricine-SDS-PAGE) and matrix-assisted laser desorption/ionization–time-of-flight mass spectrometry (MALDITOF MS) ([Zhang et al., 2014]).
A total of 15 recombinant plasmids were constructed. […]

S. epidermidis ATCC12228 = assay: MIC/MBC, micro broth dilution; format: cell-based
Experimental: (§1) The minimum inhibitory concentration (MIC) of the peptides was assayed using the micro broth dilution method, which is an important indicator of the antibacterial activity of the AMPs ([Liu et al., 2021]). […] The MIC was defined as the lowest concentration of ones at which no visible bacterial growth was observed. All the assays were repeated thrice.

[2] = test system: S. agalactiae CAU-FRI-2022-02; assay: MIC/MBC, micro broth dilution; format: cell-based
Experimental: as §1

S. dysgalactiae CVCC3938 = assay: MIC/MBC, micro broth dilution; format: cell-based
Experimental: as §1

[3] = test system: S. agalactiae CAU-FRI-2022-01; assay: MIC/MBC, micro broth dilution; format: cell-based
Experimental: as §1

S. epidermidis ATCC35984 = assay: MIC/MBC, micro broth dilution; format: cell-based
Experimental: as §1

S. aureus ATCC43300 [4] = assay: Time-kill curve (bacterial kinetics in vitro); format: cell-based, Staphylococcus aureus; conditions: 1 × 10^5 CFU/mL, 37°C, 250 rpm, colony counting
Experimental: The bactericidal efficiency of Ple-AB was evaluated by plotting a time-kill curve ([Zheng et al., 2021]). Single colonies of the S. aureus ATCC43300 were picked for overnight activation, and 1% were transferred and incubated at 37°C until the logarithmic growth phase. […] Samples of 100 uL of bacteria were taken at 0, 0.5, 1, 2, 4, 6, 8, 10, 12, and 24 h, diluted, and coated to count the number of single colonies and plot the time-killing curve.

S. aureus CVCC546 = assay: MIC/MBC, micro broth dilution; format: cell-based, Staphylococcus aureus
Experimental: as §1

S. aureus ATCC43300 [5] = assay: MIC/MBC, micro broth dilution; format: cell-based, Staphylococcus aureus
Experimental: as §1

S. aureus E48 = assay: MIC/MBC, micro broth dilution; format: cell-based, Staphylococcus aureus
Experimental: as §1

S. aureus ATCC25923 = assay: MIC/MBC, micro broth dilution; format: cell-based, Staphylococcus aureus
Experimental: as §1

[6] = micro broth dilution, 1 × 10^5 CFU/mL, repeated thrice
[7] = bovine mastitis isolate, micro broth dilution, 1 × 10^5 CFU/mL, repeated thrice

SMILES: CC[C@H](C)[C@@H]1NC(=O)[C@H](CO)NC(=O)[C@H](CCCCN)NC(=O)[C@@H]2CSSC[C@@H](C(=O)N[C@@H](Cc3ccc(O)cc3)C(=O)O)NC(=O)[C@H](CCCCN)NC(=O)[C@@H]3CSSC[C@H](NC(=O)[C@H](CCC(N)=O)NC(=O)[C@H](CCSC)NC(=O)[C@H](CCC(=O)O)NC(=O)[C@H](CC(=O)O)NC(=O)[C@H](Cc4c[nH]c5ccccc45)NC(=O)[C@@H]4CCCN4C(=O)[C@@H](NC(=O)CNC(=O)[C@H](Cc4ccccc4)NC(=O)CN)CSSC[C@H](NC(=O)[C@H](Cc4ccc(O)cc4)NC(=O)CNC(=O)CNC(=O)[C@H](CCCCN)NC(=O)[C@H](Cc4ccc(O)cc4)NC(=O)CNC(=O)[C@H](CCCCN)NC1=O)C(=O)N[C@@H](C)C(=O)N[C@@H](CCCCN)C(=O)NCC(=O)NCC(=O)N[C@@H](Cc1ccccc1)C(=O)N[C@@H](C(C)C)C(=O)N3)C(=O)N[C@@H](Cc1c[nH]cn1)C(=O)N[C@@H](CC(N)=O)C(=O)N[C@@H](Cc1c[nH]cn1)C(=O)N2 [Ple-AB] (H-GFGCPWDEMQCHNHCKSIKGYKGGYCAKGGFVCKCY-OH; disulfide 4-26, 11-33, 15-35; N-terminus and C-terminus assumed)
- Hemolytic rate (mouse erythrocytes; all concentrations 0.5–256 μg/mL, A540, three replicates): less than 2%
- Hemolytic rate (mouse erythrocytes; highest concentration, 256 μg/mL, A540): 1.07%
- MIC after Simulated Gastric Fluid (S. aureus ATCC43300 [1]; Simulated Gastric Fluid (pepsin), 1-2 h, triplicates): 16 µg/mL (≈ 4 µM)
- MIC after artificial gastric juice (S. aureus ATCC43300 [1]; artificial gastric juice (pepsin), 2 h): 16 µg/mL (≈ 4 µM)
- Antibacterial activity in inhibition circle screening (S. aureus ATCC 43300): better antibacterial activity; also recorded: normal or higher activity
- MBC (S. epidermidis ATCC12228; S. epidermidis ATCC12228): 8 µg/mL (≈ 2 µM)
- MIC (S. epidermidis ATCC12228; [6]): 2 µg/mL (≈ 0.5 µM)
- MBC ([2]; S. agalactiae CAU-FRI-2022-02): 4 µg/mL (≈ 1 µM)
- MIC [2, 7]: 2 µg/mL (≈ 0.5 µM)
- MBC (S. dysgalactiae CVCC3938; S. dysgalactiae CVCC3938): 4 µg/mL (≈ 1 µM)
- MIC (S. dysgalactiae CVCC3938; [6]): 4 µg/mL (≈ 1 µM)
- MBC ([3]; S. agalactiae CAU-FRI-2022-01): 32 µg/mL (≈ 8 µM)
- MIC [3, 7]: 4 µg/mL (≈ 1 µM)
- MBC (S. epidermidis ATCC35984; S. epidermidis ATCC35984): 8 µg/mL (≈ 2 µM)
- MIC (S. epidermidis ATCC35984; [6]): 4 µg/mL (≈ 1 µM)
- Time to kill all the strains (S. aureus ATCC43300 [4]; 1× MIC): ≤ 4 h
- Time to kill all the strains (S. aureus ATCC43300 [4]; 2× MIC): ≤ 4 h
- Time to 99% bactericidal activity (S. aureus ATCC43300 [4]; 4× MIC): ≤ 2 h
- MBC (S. aureus CVCC546; S. aureus CVCC546): 16 µg/mL (≈ 4 µM)
- MIC (S. aureus CVCC546; [6]): 8 µg/mL (≈ 2 µM)
- MBC (S. aureus ATCC43300 [5]; S. aureus ATCC43300): 32 µg/mL (≈ 8 µM)
- MIC (S. aureus ATCC43300 [5]; [6]): 16 µg/mL (≈ 4 µM)
- MIC (S. aureus ATCC43300 [5]; untreated control of the stability test, triplicates): 16 µg/mL (≈ 4 µM)
- MBC (S. aureus E48; S. aureus E48): 16 µg/mL (≈ 4 µM)
- MIC (S. aureus E48; bovine clinical strain, micro broth dilution, 1 × 10^5 CFU/mL, repeated thrice): 4 µg/mL (≈ 1 µM)
- MBC (S. aureus ATCC25923; S. aureus ATCC25923): 64 µg/mL (≈ 16 µM)
- MIC (S. aureus ATCC25923; [6]): 16 µg/mL (≈ 4 µM)
